This is an account of results in US20060275217A1, “Chemical exchange saturation transfer contrast agents” (priority 2005, published 2006).

The test relates to blood pool. In words: Mouse CEST MR imaging at 4.7T. The settings on record: mouse sacrificed 1 minute after injection, ~0.6 mmol Eu(II)/kg, saturation at -52 ppm vs +52 ppm. The format is in vivo. Here is the method:
Data was recorded at 4.7T on Bruker MR imager in a mouse sacrificed 1 minute after injection of Eu-polyLysine CEST (Example 4a) compound in water at a ˜0.6 mmol Eu(II)/kg dose (saturation pulse with a power of ˜25 μT for 2.0 s using 1000 Gauss pulses of 2 ms each).
Reference tubes contain from left to right: water, compound at 10 mM Eu(III) concentration, compound at 50 mM Eu(III) concentration and, Magnevist at a concentration such that T1˜1s.

Regarding “polylysine conjugate with the europium complex of 1,4,7,10-tetra-[N-(carboxymethyl)-carbamoyl-methyl]1,4,7,10-tetraaza-cyclododecane [Example 4a]”, the “contrast in digital difference axial image (control minus CEST image)” value was “contrast enhancement in the blood pool”.
